Read-outs that look alike come from different tables or passages of the source.
What was measured:
[1] = target: T1, CXCR-4 transfected U87 cell line (U87.CXCR4) (Homo sapiens, UniProt P61073); experiment: Intracellular CXCL-12-induced calcium mobilization assay (FLIPR); format: cell-based; details: U87.CXCR4 cells; CXCL-12 25-50 ng/mL; compound added 15 min before; read-out: IC50 CXCL-12 Ca^2+ flux U87.CXCR4+
T1 construct: expressed in transfected cells; host or cells: U87 (U87.CXCR4)
In short: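 CXCL-12 (25-50 ng/mL) was the stimulus, and the intracellular calcium rise was tracked kinetically by FLIPR at 37 °C. Cells were U87.CXCR4 transfectants pre-loaded 45 min at 37 °C with 4 μM (final) Fluo-2 AM in HEPES-buffered HBSS with 0.2% BSA, pH 7.4.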

[2] = target: T2, Jurkat cells expressing CXCR4 (Homo sapiens, UniProt P61073); experiment: Chemokine (CXCL12-AF647) binding inhibition assay; details: CXCL12-AF647 25 ng/mL, read-out: IC50 CXCL-12 binding Jurkat
T2 construct: endogenous in cells; host or cells: Jurkat
T2 sequence (P61073 whole entry): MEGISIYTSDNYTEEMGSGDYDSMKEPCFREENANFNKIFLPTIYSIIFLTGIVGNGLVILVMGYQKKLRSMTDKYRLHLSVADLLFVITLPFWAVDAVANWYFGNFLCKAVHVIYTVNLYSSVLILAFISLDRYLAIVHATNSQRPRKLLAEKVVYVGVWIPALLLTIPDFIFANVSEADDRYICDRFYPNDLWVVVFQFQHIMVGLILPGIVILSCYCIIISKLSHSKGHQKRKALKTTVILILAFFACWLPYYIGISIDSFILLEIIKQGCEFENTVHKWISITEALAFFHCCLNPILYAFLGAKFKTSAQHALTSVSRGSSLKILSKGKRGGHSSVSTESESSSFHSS
In short: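 Cells in HBSS, 20 mM HEPES, 0.2% BSA, pH 7.4, preincubated 15 min at room temperature with compound, then 25 ng/mL CXCL12-AF647 for 30 min. After washing and paraformaldehyde fixation, bound ligand read by flow cytometry; percent inhibition calculated from MFI relative to unlabeled and ligand-only controls.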

in vitro = details: human, Caco-2, pH 7.4
In short: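 Bidirectional permeability across Caco-2 monolayers in HBSS (pH 7.4) at a test concentration of 10 μM, incubated 0 and 90 min at 37° C (n=2). Monolayer integrity was assessed by TEER and Lucifer yellow. Papp was derived from LC-MS/MS-measured concentrations.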

[3] = Mouse brain uptake assay (MBUA), 3 mg/kg IV, 0-1 h, 3 time points; format: in vivo, male CD1 mice; details: for Kp / clearance / half-life / AUC(0-t) / Kp uu: male; for Kp: CD1, mouse, brain/plasma, iv, 3 mg/kg; for clearance / half-life: CD1, plasma, 3 time points; for clearance / half-life / AUC(0-t) / Kp uu / fraction unbound: mouse; for clearance / half-life / AUC(0-t) / Kp uu: 3 mg/kg IV, 0-1 h; for half-life: read-out: t½ (converted); for AUC(0-t) / Kp uu: CD1; for Kp uu: unbound brain/unbound plasma
Experimental: Example 38: Pharmacokinetics and Brain Penetration Experiment to Determine Brain and Plasma Concentrations of Compounds after IV Administration to Male CD1 Mice
The study design (9 animals) consisted of administrating the drug (IV: 3 mg/kg (5 mL/kg) via tail vein injection) and collecting samples at terminal bleeding for plasma and brain at 0.083, 0.5 and 1 h. The IV dosing solution was prepared in 50 mM citrate buffer (pH 4.0) at 0.6 mg/mL. The blood collection was performed as follows: the animal was restrained manually and approximately 150 μL blood/time point was collected into a dipotassium EDTA tube via retro orbital puncture under anesthesia with isoflurane. The blood sample was put on ice and centrifuged to obtain a plasma sample (2000 g, 5 min under 4° C.) within 15 minutes. The brain collection was performed as follows: a mid-line incision was made in the animal's scalp and the skin was retracted. Using small bone cutters and rongeurs, the skull overlying the brain was removed. The brain was removed using a spatula and the brain rinsed with cold saline. The brain was placed in screw-top tubes, and the tubes were stored at −70° C. until analysis.
An aliquot of 30 μL sample was added to 150 μL MeCN containing 50 ng/mL IS (Dexamethasone). The mixture was vortexed for 5 min and centrifuged at 14,000 rpm for 5 min. An aliquot of 5 μL supernatant was injected for LC-MS/MS analysis.
An aliquot of 30 μL brain homogenate (brain:PBS=1:3, w/v) sample was added to 150 μL IS in MeCN (Dexamethasone, 50 ng/mL). The mixture was vortexed for 5 min and centrifuged at 14,000 rpm for 5 min. An aliquot of 5 μL supernatant was injected for LC-MS/MS analysis.
The sample analysis was performed on LCMS/MS-003 (API4000, triple quadruple) under the following conditions: positive ion, ESI, MRM detection using dexamethasone as internal standard. HPLC conditions: mobile phase A: H2O (0.025% formic acid (FA) with 1 mM NH4OAc); mobile phase B: MeOH (0.025% FA with 1 mM NH4OAc) on Waters X-Bridge C18 (2.1×50 mm, 2.5 μm) column at 60° C.

[4] = fraction unbound to brain proteins, read-out: Fu (b) %
[5] = fraction unbound to plasma proteins, read-out: Fu (p) %

T1 sequence (P61073 whole entry): as above

In the case of `Cc1cccnc1[C@@H]1CCC[C@H](c2nc3ccccc3n2CC2CCN(C(C)C)CC2)N1C` [I-23, 1-((1-isopropylpiperidin-4-yl)methyl)-2-((2R,6S)-1-methyl-6-(3-methylpyridin-2-yl)piperidin-2-yl)-1H-benzo[d]imidazole], the IC50 [1] is reported as 0.01 to 100 nM, the IC50 [2] is reported as 0.01 to 100 nM and the Papp A→B at 90 min, 10 μM (in vitro) is reported as 0.1 to 10 ×10⁻⁶ cm/s. For the same compound, the Papp B→A at 90 min, 10 μM (in vitro) was 0.1 to 10 ×10⁻⁶ cm/s, the efflux ratio at 90 min, 10 μM (in vitro) was 0.1 to 10 and the Kp [3] was 0.41. The clearance [3] was 375 mL/min/kg, the half-life [3] was 18.1 min and the AUC(0-t) ([3]; brain, read-out: AUClast (b)) was 49.7 ng·h/mL. It also gave an AUC(0-t) ([3]; plasma, read-out: AUClast (P)) of 120 ng·h/mL, a Kp uu [3] of 0 and a fraction unbound [3, 4] of 0.002. For the same compound, the fraction unbound [3, 5] was 0.189.
For `Cc1cccnc1[C@@H]1CCC[C@H](c2nc3cccc(N4CCN(C)CC4)c3[nH]2)N1` [I-83], the IC50 [1] was 0.01 to 100 nM, the IC50 [2] was 0.01 to 100 nM and the Papp A→B at 90 min, 10 μM (in vitro) was 0.1 to 10 ×10⁻⁶ cm/s. It also gave a Papp B→A at 90 min, 10 μM (in vitro) of 10 to 30 ×10⁻⁶ cm/s, an efflux ratio at 90 min, 10 μM (in vitro) of 0.1 to 10 and a Kp [3] of 0.35. It also gave a clearance [3] of 101 mL/min/kg, a half-life [3] of 38.2 min and an AUC(0-t) ([3]; brain, read-out: AUClast (b)) of 112 ng·h/mL. For the same compound, the AUC(0-t) ([3]; plasma, read-out: AUClast (P)) was 316 ng·h/mL, the Kp uu ([3]; read-out: Kp, uu) was 0.04 and the fraction unbound [3, 4] was 0.018. The fraction unbound [3, 5] was 0.163.
`COc1cccnc1[C@@H]1CCC[C@H](c2nc3cccc(N4CCN(C)CC4)c3[nH]2)N1` [I-127] gave an IC50 [1] of 0.01 to 100 nM, an IC50 [2] of 0.01 to 100 nM and a Papp A→B at 90 min, 10 μM (in vitro) of 0.1 to 10 ×10⁻⁶ cm/s. It also gave a Papp B→A at 90 min, 10 μM (in vitro) of 10 to 30 ×10⁻⁶ cm/s, an efflux ratio at 90 min, 10 μM (in vitro) of 0.1 to 10 and a Kp [3] of 0.31. The clearance [3] was 132 mL/min/kg, the half-life [3] was 23.2 min and the AUC(0-t) ([3]; brain, read-out: AUClast (b)) was 99.7 ng·h/mL. For the same compound, the AUC(0-t) ([3]; plasma, read-out: AUClast (P)) was 313 ng·h/mL, the Kp uu ([3]; read-out: Kp, uu) was 0.07 and the fraction unbound [3, 4] was 0.048. For the same compound, the fraction unbound [3, 5] was 0.215.
Work on `Cc1cccnc1[C@@H]1CCC[C@H](c2nc3cccc(N4CCN(C)C5(CC5)C4)c3[nH]2)N1` [I-132] yielded an IC50 [1] of 0.01 to 100 nM, an IC50 [2] of 0.01 to 100 nM and a Papp A→B at 90 min, 10 μM (in vitro) of 10 to 30 ×10⁻⁶ cm/s. The Papp B→A at 90 min, 10 μM (in vitro) was 10 to 30 ×10⁻⁶ cm/s, the efflux ratio at 90 min, 10 μM (in vitro) was 0.1 to 10 and the Kp [3] was 1.66. The clearance [3] was 19.7 mL/min/kg, the half-life [3] was 185 min and the AUC(0-t) ([3]; brain, read-out: AUClast (b)) was 539 ng·h/mL. It also gave an AUC(0-t) ([3]; plasma, read-out: AUClast (P)) of 323 ng·h/mL, a Kp uu ([3]; read-out: Kp, uu) of 0.54 and a fraction unbound [3, 4] of 0.01. The fraction unbound [3, 5] was 0.031.

From patent publication US10988465B2, “CXCR4 inhibitors and uses thereof” (X4 Pharmaceuticals, Inc., priority 2016, dated 2021)
